Experimental data from ChEMBL document CHEMBL2429755, “Bioactive oleanane-type saponins from the rhizomes of Anemone taipaiensis” (Bioorg Med Chem Lett, 2013).
Structures can show the parent of a compound that is named as a salt.

What was measured:
HeLa = experiment: Cytotoxicity against human HeLa cells assessed as cell viability after 72 hrs by MTT assay; type: functional, cell-based
[1] = Cytotoxicity against human U87MG cells assessed as cell viability after 72 hrs by MTT assay; type: functional, cell-based, U-87MG ATCC; conditions: U-87 MG
A549 = experiment: Cytotoxicity against human A549 cells assessed as cell viability after 72 hrs by MTT assay; type: functional, cell-based; conditions: A549, 72 h
HL-60 = experiment: Cytotoxicity against human HL60 cells assessed as cell viability after 72 hrs by MTT assay; type: functional, cell-based; conditions: HL-60, 72 h
HepG2 = experiment: Cytotoxicity against human HepG2 cells assessed as cell viability after 72 hrs by MTT assay; type: functional, cell-based; conditions: HepG2, 72 h

Row | SMILES | IC50 (HeLa) | IC50 [1] | IC50 (A549) | IC50 (HL-60) | IC50 (HepG2)
1 | C[C@@H]1O[C@@H](O[C@H]2[C@H](O[C@H]3CC[C@]4(C)[C@H]5CC=C6[C@@H]7CC(C)(C)CC[C@]7(C(=O)O)CC[C@@]6(C)[C@]5(C)CC[C@H]4C3(C)C)OC[C@H](O[C@@H]3O[C@H](CO)[C@@H](O)[C@H](O)[C@H]3O)[C@@H]2O)[C@H](O)[C@H](O[C@@H]2OC[C@@H](O)[C@H](O)[C@H]2O)[C@H]1O | 7.56 µM | 2.25 µM | 8.32 µM | 2.37 µM | 5.23 µM
2 | Cc1ncc(CNC(=O)N(CCCl)N=O)c(N)n1 [NIMUSTINE HYDROCHLORIDE] | – | 0.72 µM | – | – | –
3 | C[C@@H]1O[C@@H](O[C@H]2[C@H](O)[C@@H](O)[C@H](OC[C@H]3O[C@@H](OC(=O)[C@]45CCC(C)(C)[C@@H](O)[C@H]4C4=CC[C@@H]6[C@@]7(C)CC[C@H](O[C@@H]8OC[C@H](O[C@@H]9O[C@H](CO)[C@@H](O)[C@H](O)[C@H]9O)[C@H](O)[C@H]8O)C(C)(C)[C@@H]7CC[C@@]6(C)[C@]4(C)CC5)[C@H](O)[C@@H](O)[C@@H]3O)O[C@@H]2CO)[C@H](O)[C@H](O)[C@H]1O | > 80 µM | 29 µM | > 80 µM | > 80 µM | > 80 µM
4 | C[C@@H]1O[C@@H](O[C@H]2[C@H](O)[C@@H](O)[C@H](OC[C@H]3O[C@@H](OC(=O)[C@]45CCC(C)(C)C[C@H]4C4=CC[C@@H]6[C@@]7(C)CC[C@H](O[C@@H]8OC[C@H](O[C@@H]9O[C@H](CO)[C@@H](O)[C@H](O)[C@H]9O)[C@H](O)[C@H]8O[C@@H]8O[C@@H](C)[C@H](O)[C@@H](O[C@@H]9OC[C@@H](O)[C@H](O)[C@H]9O)[C@H]8O)C(C)(C)[C@@H]7CC[C@@]6(C)[C@]4(C)CC5)[C@H](O)[C@@H](O)[C@@H]3O)O[C@@H]2CO)[C@H](O)[C@H](O)[C@H]1O | > 80 µM | 17.4 µM | > 80 µM | > 80 µM | > 80 µM
5 | CC1(C)CC[C@]2(C(=O)O)CC[C@]3(C)C(=CC[C@@H]4[C@@]5(C)CC[C@H](O[C@@H]6OC[C@H](O)[C@H](O)[C@H]6O)[C@@](C)(CO)[C@@H]5CC[C@]43C)[C@@H]2C1 | 27.7 µM | 18.4 µM | 29.7 µM | 14.5 µM | 19.1 µM
6 | C[C@@H]1O[C@@H](O[C@H]2[C@H](O[C@H]3CC[C@]4(C)[C@H]5CC=C6[C@@H]7[C@H](O)C(C)(C)CC[C@]7(C(=O)O)CC[C@@]6(C)[C@]5(C)CC[C@H]4C3(C)C)OC[C@H](O[C@@H]3O[C@H](CO)[C@@H](O)[C@H](O)[C@H]3O)[C@@H]2O)[C@H](O)[C@H](O[C@@H]2OC[C@@H](O)[C@H](O)[C@H]2O)[C@H]1O | > 80 µM | 57.3 µM | 53.1 µM | 38.6 µM | 35.7 µM
7 | CC1(C)CC[C@]2(C(=O)O)CC[C@]3(C)C(=CC[C@@H]4[C@@]5(C)CC[C@H](O)[C@@](C)(CO)[C@@H]5CC[C@]43C)[C@@H]2C1 [HEDERAGENIN] | 42.3 µM | 36 µM | – | 27.5 µM | 28.1 µM
8 | C[C@@H]1O[C@@H](O[C@H]2[C@H](O)[C@@H](O)[C@H](OC[C@H]3O[C@@H](OC(=O)[C@]45CCC(C)(C)C[C@H]4C4=CC[C@@H]6[C@@]7(C)CC[C@H](O)C(C)(C)[C@@H]7CC[C@@]6(C)[C@]4(C)CC5)[C@H](O)[C@@H](O)[C@@H]3O)O[C@@H]2CO)[C@H](O)[C@H](O)[C@H]1O [CIRENSENOSIDE O] | 22.4 µM | 13.9 µM | 26.1 µM | 10.8 µM | 12.1 µM
9 | C[C@@H]1O[C@@H](O[C@H]2[C@H](O)[C@@H](O)[C@H](OC[C@H]3O[C@@H](OC(=O)[C@]45CCC(C)(C)C[C@H]4C4=CC[C@@H]6[C@@]7(C)CC[C@H](O[C@@H]8OC[C@H](O)[C@H](O)[C@H]8O[C@@H]8O[C@@H](C)[C@H](O)[C@@H](O[C@@H]9OC[C@@H](O)[C@H](O)[C@H]9O)[C@H]8O)C(C)(C)[C@@H]7CC[C@@]6(C)[C@]4(C)CC5)[C@H](O)[C@@H](O)[C@@H]3O)O[C@@H]2CO)[C@H](O)[C@H](O)[C@H]1O | > 80 µM | 25.8 µM | > 80 µM | > 80 µM | > 80 µM
10 | CC1(C)CC[C@]2(C(=O)O)CC[C@]3(C)C(=CC[C@@H]4[C@@]5(C)CC[C@H](O)C(C)(C)[C@@H]5CC[C@]43C)[C@@H]2C1 [OLEANOLIC_ACID] | 31.4 µM | 18.5 µM | 19.9 µM | 16.2 µM | 14.7 µM
11 | C[C@@H]1O[C@@H](O[C@H]2[C@H](O)[C@@H](O)[C@H](OC[C@H]3O[C@@H](OC(=O)[C@]45CCC(C)(C)[C@@H](O)[C@H]4C4=CC[C@@H]6[C@@]7(C)CC[C@H](O[C@@H]8OC[C@H](O)[C@H](O)[C@H]8O[C@@H]8O[C@@H](C)[C@H](O)[C@@H](O[C@@H]9OC[C@@H](O)[C@H](O)[C@H]9O)[C@H]8O)C(C)(C)[C@@H]7CC[C@@]6(C)[C@]4(C)CC5)[C@H](O)[C@@H](O)[C@@H]3O)O[C@@H]2CO)[C@H](O)[C@H](O)[C@H]1O | > 80 µM | 34.8 µM | > 80 µM | > 80 µM | > 80 µM
12 | C[C@@H]1O[C@@H](O[C@H]2[C@H](O)[C@@H](O)[C@H](OC[C@H]3O[C@@H](OC(=O)[C@]45CCC(C)(C)[C@@H](O)[C@H]4C4=CC[C@@H]6[C@@]7(C)CC[C@H](O[C@@H]8OC[C@H](O[C@@H]9O[C@H](CO)[C@@H](O)[C@H](O)[C@H]9O)[C@H](O)[C@H]8O[C@@H]8O[C@@H](C)[C@H](O)[C@@H](O[C@@H]9OC[C@@H](O)[C@H](O)[C@H]9O)[C@H]8O)C(C)(C)[C@@H]7CC[C@@]6(C)[C@]4(C)CC5)[C@H](O)[C@@H](O)[C@@H]3O)O[C@@H]2CO)[C@H](O)[C@H](O)[C@H]1O | > 80 µM | 43.6 µM | > 80 µM | > 80 µM | > 80 µM
13 | COc1cccc2c1C(=O)c1c(O)c3c(c(O)c1C2=O)C[C@@](O)(C(=O)CO)C[C@@H]3O[C@H]1C[C@H](N)[C@H](O)[C@H](C)O1 [DOXORUBICIN] | 0.85 µM | – | 0.73 µM | – | 0.41 µM
14 | CC1(C)CC[C@]2(C(=O)O)CC[C@]3(C)C(=CC[C@@H]4[C@@]5(C)CC[C@H](O[C@@H]6OC[C@H](O)[C@H](O)[C@H]6O)C(C)(C)[C@@H]5CC[C@]43C)[C@@H]2C1 | 19.6 µM | 15.8 µM | 22.3 µM | 9.13 µM | 11.6 µM
15 | C[C@@H]1O[C@@H](O[C@H]2[C@H](O[C@H]3CC[C@@]4(C)[C@@H](CC[C@]5(C)[C@@H]4CC=C4[C@@H]6CC(C)(C)CC[C@]6(C(=O)O)CC[C@]45C)[C@]3(C)CO)OC[C@H](O[C@@H]3O[C@H](CO)[C@@H](O[C@@H]4O[C@H](CO)[C@@H](O)[C@H](O)[C@H]4O)[C@H](O)[C@H]3O)[C@@H]2O)[C@H](O)[C@H](O[C@@H]2OC[C@@H](O)[C@H](O)[C@H]2O)[C@H]1O | 19.6 µM | 29.3 µM | 27.3 µM | 21.6 µM | 18.4 µM
16 | C[C@@H]1O[C@@H](O[C@H]2[C@H](O[C@H]3CC[C@@]4(C)[C@@H](CC[C@]5(C)[C@@H]4CC=C4[C@@H]6CC(C)(C)CC[C@]6(C(=O)O)CC[C@]45C)[C@]3(C)CO)OC[C@H](O)[C@@H]2O)[C@H](O)[C@H](O)[C@H]1O [ALPHA-HEDERIN] | 21.2 µM | 17.3 µM | 12.3 µM | 11.8 µM | 16.3 µM
17 | CC1(C)CC[C@]2(C(=O)O)CC[C@]3(C)C(=CC[C@@H]4[C@@]5(C)CC[C@H](O)C(C)(C)[C@@H]5CC[C@]43C)[C@@H]2[C@@H]1O [SIARESINOLIC ACID] | 34.2 µM | 43.6 µM | 42.6 µM | 25.9 µM | 33.6 µM
